# Measurements published in patent publication US20240382557A1, “INHIBITION OF TUMOR NECROSIS FACTOR, PRO-INFLAMMATORY CYTOKINES AND OTHER INFLAMMATORY RESPONSE MEDIATORS” (Allegro Pharmaceuticals, LLC, priority 2021, published 2024).
# Where a SMILES comes first, the peptide text is derived from it. [ ]: non-standard residue; d: D form. Cya = N[C@@H](CS(=O)(=O)O)C(=O)O
# System: Primary human immune cells (PBMC)
# Assay: RNA-seq gene expression in primary human immune cells after risuteganib
# Format: cell-based
# Conditions: 100 μM, 8 hours
# Experimental: Purpose: In this study, RNA-seq was used to unbiasedly identify the genes regulated by risuteganib exposure in primary human immune cells. Analysis of the specific subset of genes regulated by risuteganib enables identification of biological processes and pathways modulated by the oligopeptide Methods: Primary human immune cells (PBMC) were obtained from a single human donor. The cells were separated into two groups: vehicle or 100 μM risuteganib treatment for 8 hours. After exposure, cells were collected and their total RNA isolated for RNA-seq. The generated reads were then aligned to human reference genome/transcriptome and gene expression quantified for differential expression analysis and fold change calculation. The list of regulated genes was then used to identify biological processes and pathways that are regulated after Risuteganib exposure compared to vehicle control.
compound,measurement,setting,value
"C[C@@H](O)[C@H](NC(=O)[C@H](CS(=O)(=O)O)NC(=O)CNC(=O)[C@H](CCCNC(=N)N)NC(=O)CN)C(=O)N1CCC[C@H]1C(=O)O [Risuteganib, Glycyl-L-arginylglycyl-3-sulfo-L-alanyl-L-threonyl-L-proline] (H-GRG[Cya]TP-OH)",ADAM8 Mean Expression Rate (Normalized as Fraction Control),,0.9708
same,ADGRB1 Mean Expression Rate (Normalized as Fraction Control),,0.8444
same,ADGRE2 Mean Expression Rate (Normalized as Fraction Control),,0.923
same,ADGRG3 Mean Expression Rate (Normalized as Fraction Control),,0.8381
same,AGER Mean Expression Rate (Normalized as Fraction Control),,0.9136
same,AKIRIN2 Mean Expression Rate (Normalized as Fraction Control),,0.9697
same,ALDH3B1 Mean Expression Rate (Normalized as Fraction Control),,0.8912
same,ANPEP Mean Expression Rate (Normalized as Fraction Control),,0.9082
same,ARRB2 Mean Expression Rate (Normalized as Fraction Control),,0.9014
same,ARSA Mean Expression Rate (Normalized as Fraction Control),,0.9239
same,ATP6V0A1 Mean Expression Rate (Normalized as Fraction Control),,0.9432
same,BAG6 Mean Expression Rate (Normalized as Fraction Control),,0.9522
same,BCL3 Mean Expression Rate (Normalized as Fraction Control),,0.8918
same,BRI3 Mean Expression Rate (Normalized as Fraction Control),,0.9397
same,CCL2 Mean Expression Rate (Normalized as Fraction Control),,0.9143
same,CCL3L1 Mean Expression Rate (Normalized as Fraction Control),,0.8739
same,CCL4L2 Mean Expression Rate (Normalized as Fraction Control),,0.9389
same,CCL4 Mean Expression Rate (Normalized as Fraction Control),,0.9605
same,CCL22 Mean Expression Rate (Normalized as Fraction Control),,0.9197
same,CD14 Mean Expression Rate (Normalized as Fraction Control),,0.8899
same,CD63 Mean Expression Rate (Normalized as Fraction Control),,0.9487
same,CD300A Mean Expression Rate (Normalized as Fraction Control),,0.9137
same,CDC37 Mean Expression Rate (Normalized as Fraction Control),,0.935
same,CEBPB Mean Expression Rate (Normalized as Fraction Control),,0.8752
same,CKAP4 Mean Expression Rate (Normalized as Fraction Control),,0.9133
same,CLCF1 Mean Expression Rate (Normalized as Fraction Control),,0.8975
same,CSF1 Mean Expression Rate (Normalized as Fraction Control),,0.8841
same,CSF3 Mean Expression Rate (Normalized as Fraction Control),,0.8615
same,CSTB Mean Expression Rate (Normalized as Fraction Control),,0.9649
same,CTSA Mean Expression Rate (Normalized as Fraction Control),,0.941
same,CTSD Mean Expression Rate (Normalized as Fraction Control),,0.9173
same,CXCL1 Mean Expression Rate (Normalized as Fraction Control),,0.9216
same,CXCL2 Mean Expression Rate (Normalized as Fraction Control),,0.8524
same,CXCL16 Mean Expression Rate (Normalized as Fraction Control),,0.9326
same,CYB5R3 Mean Expression Rate (Normalized as Fraction Control),,0.9564
same,CYBA Mean Expression Rate (Normalized as Fraction Control),,0.8869
same,CYP27B1 Mean Expression Rate (Normalized as Fraction Control),,0.8623
same,DGAT1 Mean Expression Rate (Normalized as Fraction Control),,0.9308
same,DNAJC5 Mean Expression Rate (Normalized as Fraction Control),,0.969
same,DOK3 Mean Expression Rate (Normalized as Fraction Control),,0.8929
same,DYSF Mean Expression Rate (Normalized as Fraction Control),,0.8587
same,ERCC1 Mean Expression Rate (Normalized as Fraction Control),,0.8784
same,FABP5 Mean Expression Rate (Normalized as Fraction Control),,0.8713
same,FCER1G Mean Expression Rate (Normalized as Fraction Control),,0.9289
same,FCER2 Mean Expression Rate (Normalized as Fraction Control),,0.7686
same,FCGRT Mean Expression Rate (Normalized as Fraction Control),,0.8558
same,FGR Mean Expression Rate (Normalized as Fraction Control),,0.9222
same,FOS Mean Expression Rate (Normalized as Fraction Control),,0.822
same,GAA Mean Expression Rate (Normalized as Fraction Control),,0.9121
same,GALNS Mean Expression Rate (Normalized as Fraction Control),,0.9356
same,GLA Mean Expression Rate (Normalized as Fraction Control),,0.9639
same,GPR84 Mean Expression Rate (Normalized as Fraction Control),,0.9231
same,GPX1 Mean Expression Rate (Normalized as Fraction Control),,0.9254
same,GRN Mean Expression Rate (Normalized as Fraction Control),,0.9221
same,HEXIM1 Mean Expression Rate (Normalized as Fraction Control),,0.9653
same,HIST2H2BE Mean Expression Rate (Normalized as Fraction Control),,0.8527
same,HLA-DPB1 Mean Expression Rate (Normalized as Fraction Control),,0.9295
same,HLA-DQB1 Mean Expression Rate (Normalized as Fraction Control),,0.9554
same,HLX Mean Expression Rate (Normalized as Fraction Control),,0.9084
same,HRAS Mean Expression Rate (Normalized as Fraction Control),,0.9238
same,IFI30 Mean Expression Rate (Normalized as Fraction Control),,0.8318
same,IGHD Mean Expression Rate (Normalized as Fraction Control),,0.8731
same,IGLC2 Mean Expression Rate (Normalized as Fraction Control),,0.8467
same,IGLV2-23 Mean Expression Rate (Normalized as Fraction Control),,0.4503
same,IL1RN Mean Expression Rate (Normalized as Fraction Control),,0.8469
same,IL4R Mean Expression Rate (Normalized as Fraction Control),,0.9748
same,IL6 Mean Expression Rate (Normalized as Fraction Control),,0.9281
same,IRF5 Mean Expression Rate (Normalized as Fraction Control),,0.9293
same,ITGAL Mean Expression Rate (Normalized as Fraction Control),,0.9842
same,ITGAM Mean Expression Rate (Normalized as Fraction Control),,0.9473
same,ITGAX Mean Expression Rate (Normalized as Fraction Control),,0.8865
same,KCNAB2 Mean Expression Rate (Normalized as Fraction Control),,0.9588
same,KCNN4 Mean Expression Rate (Normalized as Fraction Control),,0.9127
same,LFNG Mean Expression Rate (Normalized as Fraction Control),,0.9734
same,LIF Mean Expression Rate (Normalized as Fraction Control),,0.7939
same,LILRB3 Mean Expression Rate (Normalized as Fraction Control),,0.9396
same,LILRB4 Mean Expression Rate (Normalized as Fraction Control),,0.897
same,LIMK1 Mean Expression Rate (Normalized as Fraction Control),,0.9285
same,LRP1 Mean Expression Rate (Normalized as Fraction Control),,0.9405
same,LTB4R Mean Expression Rate (Normalized as Fraction Control),,0.834
same,LTBR Mean Expression Rate (Normalized as Fraction Control),,0.9644
same,MAN2B1 Mean Expression Rate (Normalized as Fraction Control),,0.9706
same,MAP2K7 Mean Expression Rate (Normalized as Fraction Control),,0.9421
same,MCEMP1 Mean Expression Rate (Normalized as Fraction Control),,0.86
same,MCOLN1 Mean Expression Rate (Normalized as Fraction Control),,0.9403
same,MMP9 Mean Expression Rate (Normalized as Fraction Control),,0.9125
same,MMP25 Mean Expression Rate (Normalized as Fraction Control),,0.8959
same,MT2A Mean Expression Rate (Normalized as Fraction Control),,0.9216
same,MUCL1 Mean Expression Rate (Normalized as Fraction Control),,0.6866
same,MYO1G Mean Expression Rate (Normalized as Fraction Control),,0.9214
same,NBEAL2 Mean Expression Rate (Normalized as Fraction Control),,0.9432
same,NCF4 Mean Expression Rate (Normalized as Fraction Control),,0.9433
same,NECTIN2 Mean Expression Rate (Normalized as Fraction Control),,0.9479
same,NFAM1 Mean Expression Rate (Normalized as Fraction Control),,0.8948
same,NFKB2 Mean Expression Rate (Normalized as Fraction Control),,0.9675
same,NFKBID Mean Expression Rate (Normalized as Fraction Control),,0.9203
same,NPLOC4 Mean Expression Rate (Normalized as Fraction Control),,0.9748
same,NRROS Mean Expression Rate (Normalized as Fraction Control),,0.9202
same,ORAI1 Mean Expression Rate (Normalized as Fraction Control),,0.9714
same,OSCAR Mean Expression Rate (Normalized as Fraction Control),,0.772
same,OSM Mean Expression Rate (Normalized as Fraction Control),,0.8306
same,OTUB1 Mean Expression Rate (Normalized as Fraction Control),,0.9445
same,PDXK Mean Expression Rate (Normalized as Fraction Control),,0.973
same,PFKL Mean Expression Rate (Normalized as Fraction Control),,0.9804
same,PI3 Mean Expression Rate (Normalized as Fraction Control),,0.9158
same,PILRA Mean Expression Rate (Normalized as Fraction Control),,0.9457
same,PLAUR Mean Expression Rate (Normalized as Fraction Control),,0.9104
same,PLD2 Mean Expression Rate (Normalized as Fraction Control),,0.9215
same,PRAM1 Mean Expression Rate (Normalized as Fraction Control),,0.8661
same,PRKCD Mean Expression Rate (Normalized as Fraction Control),,0.9631
same,PSTPIP1 Mean Expression Rate (Normalized as Fraction Control),,0.9409
same,QSOX1 Mean Expression Rate (Normalized as Fraction Control),,0.9355
same,RAB5C Mean Expression Rate (Normalized as Fraction Control),,0.9246
same,RAC2 Mean Expression Rate (Normalized as Fraction Control),,0.9763
same,RAPGEF1 Mean Expression Rate (Normalized as Fraction Control),,0.9459
same,RARA Mean Expression Rate (Normalized as Fraction Control),,0.8926
same,RELB Mean Expression Rate (Normalized as Fraction Control),,0.9647
same,RHOG Mean Expression Rate (Normalized as Fraction Control),,0.9592
same,RNF19B Mean Expression Rate (Normalized as Fraction Control),,0.9469
same,S100A11 Mean Expression Rate (Normalized as Fraction Control),,0.9492
same,SH2B2 Mean Expression Rate (Normalized as Fraction Control),,0.879
same,SIRPA Mean Expression Rate (Normalized as Fraction Control),,0.9657
same,SLC11A1 Mean Expression Rate (Normalized as Fraction Control),,0.8842
same,SLC26A6 Mean Expression Rate (Normalized as Fraction Control),,0.9452
same,SOCS1 Mean Expression Rate (Normalized as Fraction Control),,0.9289
same,SP2 Mean Expression Rate (Normalized as Fraction Control),,0.9613
same,SRC Mean Expression Rate (Normalized as Fraction Control),,0.9483
same,STK10 Mean Expression Rate (Normalized as Fraction Control),,0.9606
same,STX4 Mean Expression Rate (Normalized as Fraction Control),,0.949
same,STXBP2 Mean Expression Rate (Normalized as Fraction Control),,0.8885
same,SUPT6H Mean Expression Rate (Normalized as Fraction Control),,0.9568
same,TCIRG1 Mean Expression Rate (Normalized as Fraction Control),,0.892
same,TFE3 Mean Expression Rate (Normalized as Fraction Control),,0.9731
same,TICAM1 Mean Expression Rate (Normalized as Fraction Control),,0.9382
same,TNF Mean Expression Rate (Normalized as Fraction Control),,0.9281
same,TNFRSF1B Mean Expression Rate (Normalized as Fraction Control),,0.9604
same,TNFRSF4 Mean Expression Rate (Normalized as Fraction Control),,0.9427
same,TNFRSF13B Mean Expression Rate (Normalized as Fraction Control),,0.8508
same,TNFRSF14 Mean Expression Rate (Normalized as Fraction Control),,0.9239
same,TNFSF9 Mean Expression Rate (Normalized as Fraction Control),,0.8416
same,TOM1 Mean Expression Rate (Normalized as Fraction Control),,0.9211
same,TRAF3IP2 Mean Expression Rate (Normalized as Fraction Control),,0.9472
same,TREM1 Mean Expression Rate (Normalized as Fraction Control),,0.9084
same,TRPM2 Mean Expression Rate (Normalized as Fraction Control),,0.9391
same,TYK2 Mean Expression Rate (Normalized as Fraction Control),,0.9711
same,TYROBP Mean Expression Rate (Normalized as Fraction Control),,0.9329
same,UNC13D Mean Expression Rate (Normalized as Fraction Control),,0.9577
same,ZC3H12A Mean Expression Rate (Normalized as Fraction Control),,0.9757
same,ZP3 Mean Expression Rate (Normalized as Fraction Control),,0.8491
same,ZYX Mean Expression Rate (Normalized as Fraction Control),,0.9139
same,genes associated with TNF-a pro-inflammatory pathway (pathway analysis),adjusted p-value=6.22E-3,down-regulated
same,NA Mean Expression Rate (Normalized as Fraction Control),gene printed as NA,0.9077
